Experiment [1] concerns the target T1, Sphingomyelin phosphodiesterase (Homo sapiens) (UniProt P17405).
T1 sequence (whole entry): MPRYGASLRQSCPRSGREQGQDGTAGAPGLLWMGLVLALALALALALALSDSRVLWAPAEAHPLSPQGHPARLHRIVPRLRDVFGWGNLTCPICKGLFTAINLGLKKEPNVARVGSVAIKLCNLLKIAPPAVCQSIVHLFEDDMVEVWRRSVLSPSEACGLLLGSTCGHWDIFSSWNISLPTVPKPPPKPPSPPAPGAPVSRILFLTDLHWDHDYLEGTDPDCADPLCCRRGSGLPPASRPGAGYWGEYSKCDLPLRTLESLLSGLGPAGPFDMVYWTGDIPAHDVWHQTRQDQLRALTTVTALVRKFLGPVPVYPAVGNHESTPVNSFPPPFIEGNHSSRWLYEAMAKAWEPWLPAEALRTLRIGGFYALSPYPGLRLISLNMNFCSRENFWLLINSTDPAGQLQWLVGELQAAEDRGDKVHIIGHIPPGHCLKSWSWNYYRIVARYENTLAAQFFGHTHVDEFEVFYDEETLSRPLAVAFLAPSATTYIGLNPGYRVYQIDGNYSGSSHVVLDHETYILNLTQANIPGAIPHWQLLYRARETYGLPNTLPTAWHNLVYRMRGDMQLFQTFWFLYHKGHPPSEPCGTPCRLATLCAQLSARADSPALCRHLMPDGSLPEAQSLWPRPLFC
Description: Inhibition of aSMase expressed in human A549 cells using 6-hexadecanoylamino-4-methylumbelliferylphosphorylcholine as substrate at 10 uM after 2 hrs by spectrophotometry. In kind it is cell-based.

Experiment [2] has as its target T2, Lysosomal acid glucosylceramidase (Homo sapiens) (UniProt P04062).
T2 sequence (whole entry): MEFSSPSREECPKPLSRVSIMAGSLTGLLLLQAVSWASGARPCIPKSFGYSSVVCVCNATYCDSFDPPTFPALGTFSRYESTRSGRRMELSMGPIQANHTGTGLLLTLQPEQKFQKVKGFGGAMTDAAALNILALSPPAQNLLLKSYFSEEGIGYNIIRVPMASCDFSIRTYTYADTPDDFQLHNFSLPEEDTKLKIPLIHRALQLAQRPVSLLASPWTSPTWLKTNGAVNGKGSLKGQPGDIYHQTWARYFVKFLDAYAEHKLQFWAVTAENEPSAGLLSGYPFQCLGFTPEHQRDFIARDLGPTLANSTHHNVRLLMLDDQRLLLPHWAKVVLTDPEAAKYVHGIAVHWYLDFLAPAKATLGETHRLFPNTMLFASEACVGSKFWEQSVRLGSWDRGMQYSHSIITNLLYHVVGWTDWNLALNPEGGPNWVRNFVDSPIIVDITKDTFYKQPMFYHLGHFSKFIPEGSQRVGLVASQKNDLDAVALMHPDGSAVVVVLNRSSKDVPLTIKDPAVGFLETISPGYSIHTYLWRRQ
Description: Inhibition of glucocerebrosidase in human A549 cells using 4-methylumbelliferyl beta-D-glucoside as substrate at 10 uM after 45 mins by spectrophotometry. The experiment is classed as cell-based.

Experiment [3] has as its target T3, Sphingolipid delta(4)-desaturase DES1 (Homo sapiens, UniProt O15121).
T3 sequence (O15121 whole entry): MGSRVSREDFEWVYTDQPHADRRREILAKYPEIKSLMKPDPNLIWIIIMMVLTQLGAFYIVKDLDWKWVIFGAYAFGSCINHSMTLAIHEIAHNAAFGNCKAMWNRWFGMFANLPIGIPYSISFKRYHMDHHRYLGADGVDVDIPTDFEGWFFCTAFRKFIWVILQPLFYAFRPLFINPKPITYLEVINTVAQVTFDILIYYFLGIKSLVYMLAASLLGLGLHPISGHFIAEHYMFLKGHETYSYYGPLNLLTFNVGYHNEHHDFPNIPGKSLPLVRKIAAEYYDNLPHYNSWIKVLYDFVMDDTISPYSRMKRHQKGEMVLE
The experiment in a line: Inhibition of Des1 in human HCT116 cells assessed as formation of CerC6NBD from dhCerC6NBD after 4 hrs by HPLC-FD analysis.

Experiment [4] addresses T3, Sphingolipid delta(4)-desaturase DES1. The experiment in a line: Inhibition of Des1 in human A549 cells assessed as formation of CerC6NBD from dhCerC6NBD after 4 hrs by HPLC-FD analysis.
For experiment [5], the target named is T1, Sphingomyelin phosphodiesterase (Homo sapiens). The experiment in a line: Inhibition of aSMase expressed in human A549 cells using 6-hexadecanoylamino-4-methylumbelliferylphosphorylcholine as substrate at 20 uM after 2 hrs by spectrophotometry. In kind it is cell-based.
The target of experiment [6] is T2, Lysosomal acid glucosylceramidase (Homo sapiens). The experiment in a line: Inhibition of glucocerebrosidase in human A549 cells using 4-methylumbelliferyl beta-D-glucoside as substrate at 40 uM after 45 mins by spectrophotometry. In kind it is cell-based.
Experiment [7] has as its target T1, Sphingomyelin phosphodiesterase (Homo sapiens). The experiment in a line: Inhibition of aSMase expressed in human A549 cells using 6-hexadecanoylamino-4-methylumbelliferylphosphorylcholine as substrate at 40 uM after 2 hrs by spectrophotometry. The experiment is classed as cell-based.

Calls of active or inactive are those of the source. The rule behind the calls is not given here.

This note sets out measurements from ChEMBL document CHEMBL2021903, “3-Deoxy-3,4-dehydro analogs of XM462. Preparation and activity on sphingolipid metabolism and cell fate” (Bioorg Med Chem, 2012).

Broadly, the IC50 is the point on the concentration scale where inhibition reaches its midpoint.

On to `CCCCCCCCCCCCCS/C=C/[C@H](CO)NC(=O)CCCCCCC`, for which the inhibition entry in experiment [1] and in experiment [2] was “inactive” throughout. Moreover, the figures for the IC50 in experiment [3] and in experiment [4] were 18.8 µM and 18.1 µM, respectively.

For `CCCCCCCCCCCCCS/C=C/[C@H](CO)NC(=O)C(C)(C)C`, the inhibition entry in experiment [5] was “inactive”.

In the case of `CCCCCCCCCCCCCS/C=C/[C@H](CO)NC(=O)c1ccc(C(C)(C)C)cc1`, the inhibition result in experiment [6] and in experiment [7] was “inactive” each time.
